Here are results for eight compounds from US6846933B1, “Antimycobacterial compounds and method for making the same” (priority 2000, dated 2005).

For experiment [1], the system named is M. tuberculosis strain resistant to isoniazid (ATCC 35822). The experiment can be described thus: microbe, parasite or virus in culture. In kind it is cell-based. The following applies: Mycobacterium tuberculosis.
Experiment [2] relates to M. tuberculosis strain resistant to rifampin (ATCC 35838). Description: microbe, parasite or virus in culture. In kind it is cell-based. Particulars: Mycobacterium tuberculosis.
Where [3] appears, read: ATCC35822, read-out: MIC INH-R (ug/ml).
[4] abbreviates: ATCC35838, read-out: MIC RMP-R (ug/ml).

In brackets after ≈: the same amount, converted by molar mass. Like-named read-outs stand apart in the source and are kept apart here.

For `CO[C@H]1/C=C/O[C@@]2(C)Oc3c(C)c(O)c4c(O)c(c(/C=N/N5CCN(C)CC5)c(O)c4c3C2=O)NC(=O)/C(C)=C\C=C\[C@H](C)[C@H](O)[C@@H](C)[C@@H](O)[C@@H](C)[C@H](OC(C)=O)[C@@H]1C` [RMP, rifampin, reference compound], the MIC in experiment [1] (ATCC35822, read-out: MIC of RMP vs INH-R (Comment, Table 9)) was 0.5 µg/mL; in experiment [2] (ATCC35838, read-out: MIC of RMP vs RMP-R (Comment, Table 9)), greater than 8 µg/mL.

As for `CC(C)=CCCC(C)C/C=N/NC(=O)c1ccncc1` (stereo not shown) [Sample ID 102044], the values for the MIC in experiment [1] (setting [3]) and in experiment [2] (setting [4]) were 3.13 µg/mL (≈ 11.4 µM) and less than 0.1 µg/mL, respectively.

Turning to `COc1ccc(/C=N/NC(=O)c2ccncc2)cc1` [Sample ID 102866], the MIC is 3.25 µg/mL (≈ 12.7 µM) in experiment [1] (setting [3]) and less than 0.05 µg/mL in experiment [2] (setting [4]).

With `O=C(NN=C1CCCC1)c1ccncc1` [Sample ID 111298], the MIC in experiment [1] (setting [3]) was greater than 0.75 µg/mL; in experiment [2] (setting [4]), 0.05 µg/mL (≈ 0.246 µM).

For the compound `CC1C/C(=N/NC(=O)c2ccncc2)CC(C)(C)C1` (stereo not shown) [Sample ID 114353], the MIC in experiment [1] (setting [3]) is less than 6.25 µg/mL; in experiment [2] (setting [4]), less than 0.1 µg/mL.

Turning to `O=C(N/N=C/c1cc(Cl)ccc1Cl)c1ccncc1` [Sample ID 117150], the MIC in experiment [1] (setting [3]) was greater than 3.25 µg/mL; in experiment [2] (setting [4]), less than 0.05 µg/mL.

Regarding `CCOC(=O)/C(CCc1ccccc1)=N\NC(=O)c1ccncc1` [Sample ID 132358], the MIC is greater than 3.2 µg/mL in experiment [1] (setting [3]) and 0.1 µg/mL (≈ 0.307 µM) in experiment [2] (setting [4]).

Consider `O=C(N/N=C/C=C(c1ccccc1)c1ccccc1)c1ccncc1` [Sample ID 132532], for which the MIC in experiment [1] (setting [3]) was greater than 3.2 µg/mL; in experiment [2] (setting [4]) it was 0.1 µg/mL (≈ 0.305 µM).
